Measured values taken from ChEMBL document CHEMBL1129525 (J Med Chem, 1996).
pIC50: −log10 of the molar value.

Columns and labels:
Dihydrofolate reductase [1] = target: T1, Dihydrofolate reductase (Pneumocystis carinii, UniProt P16184)
T1 sequence (P16184 whole entry): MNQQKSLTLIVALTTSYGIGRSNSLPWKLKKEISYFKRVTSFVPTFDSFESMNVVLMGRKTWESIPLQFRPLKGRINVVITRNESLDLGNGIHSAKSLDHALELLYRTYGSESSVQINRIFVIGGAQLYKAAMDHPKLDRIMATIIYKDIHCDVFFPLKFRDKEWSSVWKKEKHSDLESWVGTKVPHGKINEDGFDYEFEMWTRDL
Description: Inhibitory activity against Pneumocystis carinii dihydrofolate reductase

Dihydrofolate reductase [2] = target: T2, Dihydrofolate reductase (Rattus norvegicus, UniProt Q920D2)
T2 sequence (Q920D2 whole entry): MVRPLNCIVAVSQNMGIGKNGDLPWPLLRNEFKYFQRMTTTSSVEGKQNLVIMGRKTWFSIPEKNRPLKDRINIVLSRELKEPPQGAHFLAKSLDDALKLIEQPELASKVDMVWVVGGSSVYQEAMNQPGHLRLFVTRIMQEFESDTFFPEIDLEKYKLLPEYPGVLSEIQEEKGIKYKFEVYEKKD
Description: Inhibitory activity against rat liver dihydrofolate reductase

[3] = target: T3, Bifunctional dihydrofolate reductase-thymidylate synthase (Toxoplasma gondii, UniProt Q07422)
T3 sequence (Q07422 whole entry): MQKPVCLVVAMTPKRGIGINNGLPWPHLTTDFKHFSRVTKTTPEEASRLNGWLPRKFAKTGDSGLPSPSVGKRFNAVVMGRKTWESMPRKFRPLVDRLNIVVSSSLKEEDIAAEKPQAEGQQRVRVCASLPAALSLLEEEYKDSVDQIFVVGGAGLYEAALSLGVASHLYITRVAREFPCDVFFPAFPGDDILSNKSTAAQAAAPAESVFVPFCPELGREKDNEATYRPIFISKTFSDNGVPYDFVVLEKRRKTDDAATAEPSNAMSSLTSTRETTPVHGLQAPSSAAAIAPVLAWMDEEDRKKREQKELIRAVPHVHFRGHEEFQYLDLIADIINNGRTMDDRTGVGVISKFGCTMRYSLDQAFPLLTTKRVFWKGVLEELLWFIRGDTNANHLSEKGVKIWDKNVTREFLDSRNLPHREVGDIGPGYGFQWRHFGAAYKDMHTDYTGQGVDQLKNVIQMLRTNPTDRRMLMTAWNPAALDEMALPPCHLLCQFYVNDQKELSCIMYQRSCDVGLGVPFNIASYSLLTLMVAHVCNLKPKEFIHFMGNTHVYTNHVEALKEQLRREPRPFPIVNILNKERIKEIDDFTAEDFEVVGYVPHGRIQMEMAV
Description: Inhibitory activity against Toxoplasma gondii dihydrofolate reductase

Toxoplasma gondii [4] = assay: Inhibition of Toxoplasma gondii cell growth; format: functional, organism-based
Toxoplasma gondii [5] = assay: Inhibitory activity against Toxoplasma gondii cell growth(ca denotes calculated value); format: functional, organism-based

Row | Structure (SMILES) | pIC50 (Dihydrofolate reductase [1]) | pIC50 (Dihydrofolate reductase [2]) | pIC50 [3] | pIC50 (Toxoplasma gondii [4]) | pIC50 (Toxoplasma gondii [5])
1 | Cc1c(CSc2cccc3ccccc23)cnc2nc(N)nc(N)c12 | 6.54 | 6.26 | 7.52 | 7.40 | 
2 | COc1cccc(C)c1NCc1cnc2nc(N)nc(N)c2n1 | 4.80 | 5.24 | 5.73 | 5.30 | 
3 | Nc1nc(N)c2nc(CSc3ccc(Cl)cc3)cnc2n1 | 4.38 | 4.84 | 4.77 | < 5.00 | 
4 | CCOc1ccc(OCC)c(N(C)Cc2cnc3nc(N)nc(N)c3c2C)c1 | 6.78 | 6.28 | 7.54 | 7.22 | 
5 | COc1cc(NCc2ccc3nc(N)nc(N)c3c2C)cc(OC)c1OC [TRIMETREXATE] |  |  |  |  | 7.70

Further lines, with some results ahead:

Row | pIC50 (Dihydrofolate reductase [1]) | pIC50 (Dihydrofolate reductase [2]) | Structure (SMILES) | pIC50 [3] | pIC50 (Toxoplasma gondii [4]) | pIC50 (Toxoplasma gondii [5])
6 | 7.31 | 7.51 | COc1cc(NCc2cnc3nc(N)nc(N)c3c2C)cc(OC)c1 | 8.46 | 7.22 | 
7 | 7.42 | 6.82 | COc1ccc(C)c(NCc2cnc3nc(N)nc(N)c3c2C)c1 | 7.64 | 7.52 | 
8 | 6.90 | 6.43 | CCOc1ccc(OCC)c(NCc2cnc3nc(N)nc(N)c3c2C)c1 | 7.66 | 7.22 | 
